# Measurements taken from patent US4883821A, “Agent for treating hyperuricemia” (Eisai Co., Ltd., priority 1988, dated 1989).
# Values joined by “and” are separate entries in the source; they are usually repeats but may differ in a detail not shown here. Equal entries are not always repeated.
# Legend:
# [1] = clinical use, prior art; cited from earlier work
# uric acid level in serum = test: phase I clinical test: uric acid level in serum of healthy adult men (enzymatic method); type: in vivo
# Protocol: Capsules containing 300 mg of the compound of the present invention, N-{3-[4"-(2",6"-dimethylheptyl)phenyl]butanoyl}ethanolamine, were administered to 5 healthy adult men for 7 days three times per day after meals. For comparison, a placebo was administered to two other healthy adult men. Thus, the phase I clinical test was conducted.
# […] With respect to the measured values, the significance test was conducted between the group to which the compound of the present invention was administered and the group to which the placebo was administered.
# In the above table, each value indicates the uric acid level (mg/dl) in serum, and A through G in the column of "Healthy man" represent the adult men to whom the medicine was administered.
# [2] = acute toxicity test in rats; type: in vivo; conditions: rat, in vivo
# Protocol: (§1) The acute toxicity test was carried out by oral, intraperitoneal and subcutaneous administration to 7- to 8-week old Sic-SD rats and Slc:ICr mice. The case of death was observed within 5 days from the start of the administration.
# Sic-SD rats = test: acute toxicity test in rats; type: in vivo; conditions: oral, intraperitoneal and subcutaneous
# Protocol: as §1
# [3] = acute toxicity test in mice; conditions: mouse, in vivo
# Protocol: as §1
# [4] = disclosed in Japanese Patent Laid-Open No. 210050/1986; cited from earlier work
smiles,measurement,setting,value
Oc1ncnc2[nH]ncc12 [allopurinol],adverse effects,[1],"causes efflorescence, gastrointestinal disorders, liver troubles and hematogenic organ troubles"
"CC(C)CCCC(C)Cc1ccc(C(C)CC(=O)NCCO)cc1 (stereo not drawn) [compound of the present invention, N-{3-[4'-(2"",6""-dimethylheptyl)phenyl]butanoyl}ethanolamine]",accumulation of the medicinal effect,uric acid level in serum; after stop of administration,not observed
same,uric acid level in serum when administration was stopped,uric acid level in serum; after stop of administration,promptly elevated to the value before the start of the administration
same,"average uric acid level in serum, 1st day","uric acid level in serum; average of men A-E, 1st day, before administration, placebo average 6.0",5.8 mg/dL
same,"average uric acid level in serum, 4th day","uric acid level in serum; average of men A-E, 4th day, 300 mg three times per day, marked *, placebo average 5.7",3.1 mg/dL
same,"average uric acid level in serum, 6th day","uric acid level in serum; average of men A-E, 6th day, 300 mg three times per day, marked *, placebo average 5.7",2.7 mg/dL
same,"average uric acid level in serum, 8th day","uric acid level in serum; average of men A-E, 8th day, 300 mg three times per day for 7 days, marked *, placebo average 5.8",3.2 mg/dL
same,"average uric acid level in serum, 11th day","uric acid level in serum; average of men A-E, 11th day, after 7 days of administration, placebo average 7.1",5.5 mg/dL
same,lowering in the uric acid level in serum,uric acid level in serum; fourth day,significant lowering in the uric acid level in serum was observed
same,"uric acid level in serum, 1st day","uric acid level in serum; individual healthy men A-E (one per line), 1st day, before administration, 300 mg capsules three times per day after meals, 7 days, listed as compound of present invention",4.9 mg/dL and 6.4 mg/dL and 5.9 mg/dL and 7.0 mg/dL and 4.7 mg/dL
same,"uric acid level in serum, 4th day","uric acid level in serum; individual healthy men A-E (one per line), 4th day, 300 mg capsules three times per day after meals, 7 days, listed as compound of present invention",8.5 mg/dL and 2.9 mg/dL and 2.6 mg/dL and 3.6 mg/dL and 2.8 mg/dL
same,"uric acid level in serum, 6th day","uric acid level in serum; individual healthy men A-E (one per line), 6th day, 300 mg capsules three times per day after meals, 7 days, listed as compound of present invention",3.0 mg/dL and 2.6 mg/dL and 2.4 mg/dL and 3.2 mg/dL and 2.5 mg/dL
same,"uric acid level in serum, 8th day","uric acid level in serum; individual healthy men A-E (one per line), 8th day, 300 mg capsules three times per day after meals, 7 days, listed as compound of present invention",3.2 mg/dL and 3.1 mg/dL and 4.0 mg/dL and 2.7 mg/dL
same,"uric acid level in serum, 11th day","uric acid level in serum; individual healthy men A-E (one per line), 11th day, after 7 days of 300 mg capsules three times per day after meals, listed as compound of present invention",4.8 mg/dL and 5.6 mg/dL and 7.2 mg/dL and 5.3 mg/dL
same,LD50,"[2]; ip, female, intraperitoneal",572 mg/kg
same,LD50,"[2]; ip, male, intraperitoneal",1340 mg/kg
same,LD50,"[2]; po, female",1910 mg/kg
same,LD50,"[2]; po, male",4260 mg/kg
same,LD50,"[2]; sc, female, subcutaneous",6350 mg/kg
same,LD50,"[2]; sc, male, subcutaneous",> 8000 mg/kg
same,time of death from the start of the administration,Sic-SD rats,≤ 5 days
same,LD50,"[3]; ip, female, intraperitoneal",737 mg/kg
same,LD50,"[3]; ip, male, intraperitoneal",792 mg/kg
same,LD50,"[3]; po, female",4580 mg/kg
same,LD50,"[3]; po, male",> 2560 mg/kg
same,LD50,"[3]; sc, female, subcutaneous",> 5000 mg/kg
same,LD50,"[3]; sc, male, subcutaneous",> 5000 mg/kg
same,anticholesterolemic action,[4],has an anticholesterolemic action
same,solubility in organic solvents,"solubility; anhydrous ethanol, ethyl acetate, ethanol, chloroform, acetonitrile and n-hexane",Highly soluble
same,solubility in water,solubility; water,substantially insoluble
